16 compounds from patent publication US20150051270A1, “Novel Cyclic Phenoxy Compounds and Improved Treatments for Cardiac and Cardiovascular Disease” (University of Nottingham, priority 2012, published 2015) can be followed below.

Series [1] has as its target T1, human beta1-adrenoceptor (Homo sapiens, UniProt P08588).
T1 construct: expressed in transfected cells; host or cells: CHO cells
Description: 3H-CGP 12177 whole cell binding, beta1. The settings on record: 3H-CGP12177 whole-cell binding, CHO cells expressing human beta1-adrenoceptor, given as negative Log KD; for Kd: read-out: Beta 1 Log KD (converted). On the procedure:
(§1) Selectivity of ligands for the three beta-adrenoceptors was assessed by whole-cell binding studies using ^3H-CGP12177 in CHO cells expressing the human beta1, beta2 or beta3-adrenoceptors respectively essentially as described by Baker (2005; Br. J Pharmacol: 144, 317-22). Values shown are KD values determined as described by Baker (2005). KD represents the concentration of compound required to occupy 50% of the receptors in cells or tissues.
(§2) The selectivity of a ligand is given by the ratio of beta-1 to beta-2 KD. Accordingly a difference of one in the logarithmic values thereof represents a 10-fold selectivity, a difference of 2 represents 100-fold selectivity and a difference of 3 represents 1000-fold selectivity etc.

Series [2] addresses T2, human beta2-adrenoceptor (Homo sapiens, UniProt P07550).
T2 construct: expressed in transfected cells; host or cells: CHO cells
Description: 3H-CGP 12177 whole cell binding, beta2. The settings on record: 3H-CGP12177 whole-cell binding, CHO cells expressing human beta2-adrenoceptor, given as negative Log KD; for Kd: read-out: Beta 2 Log KD (converted). On the procedure:
as §1, §2

Broadly, the Kd is the concentration at which binding is half-saturated. What is called melting point is the temperature, or range, at which the solid turns liquid.

T1 sequence (P08588 whole entry): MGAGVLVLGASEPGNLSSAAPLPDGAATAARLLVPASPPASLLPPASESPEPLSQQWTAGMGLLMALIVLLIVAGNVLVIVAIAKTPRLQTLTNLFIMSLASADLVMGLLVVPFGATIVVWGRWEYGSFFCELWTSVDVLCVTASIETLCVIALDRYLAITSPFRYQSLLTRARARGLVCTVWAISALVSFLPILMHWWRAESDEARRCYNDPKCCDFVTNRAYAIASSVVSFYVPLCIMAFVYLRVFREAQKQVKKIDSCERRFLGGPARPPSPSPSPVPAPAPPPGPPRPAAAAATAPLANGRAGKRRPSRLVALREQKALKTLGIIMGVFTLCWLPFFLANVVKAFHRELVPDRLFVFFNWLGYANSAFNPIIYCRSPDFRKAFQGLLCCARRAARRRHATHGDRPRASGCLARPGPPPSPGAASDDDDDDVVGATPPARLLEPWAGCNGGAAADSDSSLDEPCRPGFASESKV

For the compound `CCOCc1cc2cc(OCC(O)CNCCNC(=O)Nc3ccc(O)cc3)ccc2o1` (stereo not shown) [Example 610a, 1-(2-(3-(2-(Ethoxymethyl)benzofuran-5-yloxy)-2-hydroxypropylamino)ethyl)-3-(4-hydroxyphenyl)urea], the melting point was determined as 131.5 °C. Also, the Kd in series [1] is 257 nM. Moreover, the Kd in series [2] was 10200 nM.

For the compound `NC(=O)c1cc2cc(OCC(O)CNCCNC(=O)Nc3cccc(Cl)c3)ccc2o1` (stereo not shown) [Example 24b, 5-(3-(2-(3-(3-chlorophenyl)ureido)ethylamino)-2-hydropropoxy)benzofuran-2-carboxamide], the Kd in series [1] is 501 nM; in series [2] it was 6460 nM.

On to `O=C(NCCNCC(O)C1COc2ccccc2O1)Nc1cccc(Cl)c1` (stereo not shown) [Example 46a, 1-(3-chlorophenyl)-3-(2-(2-(2,3-dihydrobenzo[b][1,4]dioxin-2-yl)-2-hydroxyethylamino)ethyl)urea], for which the melting point was 141 °C. In addition, the Kd in series [1] was 3.98 nM. Also, the Kd in series [2] is 57.5 nM.

With `COc1ccc2oc(C(O)CNCCNC(=O)Nc3ccc(O)cc3)cc2c1` (stereo not shown) [Example 63d], the melting point came out at 151 °C. Further, in series [1], the Kd is 224 nM. Moreover, the Kd in series [2] is 3160 nM.

For `O=C(NCCNCC(O)COc1ccc2c(c1)OC(c1ccccc1)CC2=O)Nc1cccc(Cl)c1` (stereo not shown) [Example 4a, 1-(3-chlorophenyl)-3-(2-(2-hydroxy-3-(4-oxo-2-phenylchroman-7-yloxy)propylamino)ethyl)urea], the Kd in series [1] is 407 nM; in series [2], 3090 nM.

Regarding `O=C(NCCNCC(O)COc1ccc2oc(=O)ccc2c1)Nc1cccc(Cl)c1` (stereo not shown) [Example 4c, 1-(3-chlorophenyl)-3-(2-(2-hydroxy-3-(2-oxo-2H-chromen-6-yloxy)propylamino)ethyl)urea], the melting point is 160 °C. Besides, in series [1], the dissociation constant (Kd) is 355 nM. Further, in series [2], the Kd is 9330 nM.

On to `O=C(NCCNCC(O)COc1ccc2oc(-c3ccccc3)cc(=O)c2c1)Nc1cccc(Cl)c1` (stereo not shown) [Example 4b, 1-(3-chlorophenyl)-3-(2-(2-hydroxy-3-(4-oxo-2-phenyl-4H-chromen-6-yloxy)propylamino)ethyl)urea], for which the melting point is 165 °C. The Kd in series [1] is 617 nM. Further, in series [2], the Kd was 4470 nM.

Regarding `Cc1cc(=O)oc2ccc(OCC(O)CNCCNC(=O)Nc3cccc(Cl)c3)cc12` (stereo not shown) [Example 4d, 1-(3-chlorophenyl)-3-(2-(2-hydroxy-3-(4-methyl-2-oxo-2H-chromen-6-yloxy)propylamino)ethyl)urea], the melting point is 158 °C. For the same compound, the Kd in series [1] is 389 nM. Moreover, the Kd in series [2] is 4470 nM.

On to `O=C(NCCNCC(O)C1Cc2cc(OCCOC3CCCC3)ccc2O1)Nc1ccc(O)cc1` (stereo not shown) [Example 63a, 1-(2-(2-(5-(2-(cyclopentyloxy)ethoxy)-2,3-dihydrobenzofuran-2-yl)-2-hydroxyethylamino)ethyl)-3-(4-hydroxyphenyl)urea], for which the Kd in series [1] was 537 nM; in series [2], 26900 nM.

On to `O=C(NCCNCC(O)c1cc2cc(OCCOC3CCCC3)ccc2o1)Nc1ccc(O)cc1` (stereo not shown) [Example 63b, 1-(2-(2-(5-(2-(cyclopentyloxy)ethoxy)benzofuran-2-yl)-2-hydroxyethylamino)ethyl)-3-(4-hydroxyphenyl)urea], for which the Kd was 155 nM in series [1] and 44700 nM in series [2].

For “1-(2-(2-Hydroxy-3-(2-methylbenzofuran-5-yloxy)propylamino)ethyl)-3-(4-hydroxyphenyl)urea [Example 610c]”, the “Beta 1 Log KD” value in series [1] is −6.55. For the same compound, the “Beta 2 Log KD” value in series [2] is on record as −5.16.

Consider “1-(2-(3-(3-(Ethoxymethyl)-2,3-dihydrobenzo[b][1,4]dioxin-6-yloxy)-2-hydroxypropylamino)ethyl)-3-(4-hydroxyphenyl)urea and 1-(2-(3-(2-(ethoxymethyl)-2,3-dihydrobenzo[b][1,4]dioxin-6-yloxyl-2-hydroxypropylamino)ethyl)-3-(4-hydroxyphenyl)urea [Example 76]”, for which the “Beta 1 Log KD” value in series [1] was −6.84. In series [2], the “Beta 2 Log KD” value is −4.69.

With `CCOCC1Cc2cc(OCC(O)CNCCNC(=O)Nc3ccc(O)cc3)ccc2O1` (stereo not shown) [Example 610b], the “Beta 1 Log KD” value in series [1] is listed as −6.78. Further, the “Beta 2 Log KD” value in series [2] is recorded as −4.79.

Consider `CCOC(=O)c1cc2cc(OCC(O)CNCCNC(=O)Nc3cccc(Cl)c3)ccc2o1` (stereo not shown) [Example 24a, Ethyl-5-(3-(2-(3-(3-Chlorophenyl)ureido)ethylamino)-2-hydropropoxy)benzofuran-2-carboxylate], for which the “Beta 1 Log KD” value in series [1] is given as −6.50. Besides, the “Beta 2 Log KD” value in series [2] was −5.27.

`O=C(NCCNCC(O)C1COc2ccccc2O1)Nc1ccc(O)cc1` (mixture of isomers) [Example 46b, 1-(2-(2-(2,3-dihydrobenzo[b][1,4]dioxin-2-yl)-2-hydroxyethylamino)ethyl)-3-(4-hydroxyphenyl)urea] gave a melting point of 141 °C. Besides, the Kd in series [1] was 11 nM. Moreover, the Kd in series [2] was 97.7 nM.

With `Cc1ccc2cc(C(O)CNCCNC(=O)Nc3ccc(O)cc3)oc2c1` (stereo not shown) [Example 63c], the melting point came out at 152.5 °C. Also, the Kd in series [1] was 46.8 nM. In addition, the Kd in series [2] is 525 nM.
